Assay results from US20190230931A1, “SURFACE TREATMENTS” (priority 2014, published 2019).
Values after ≈ are worked out from the molar mass of the structure shown. Where two headings read alike, the source gives them in different places.

Assays:
Type in all cases: cell-based
[1] = system: Escherichia coli clinical isolate; assay: Susceptibility of clinical isolates by broth microdilution (MIC/MBC); conditions: for MBC: broth microdilution and plating, read-out: Minimum bactericidal concentration (MBC); for MIC: broth microdilution, 37° C., 18 hours, read-out: Minimum inhibitory concentration (MIC)
Description: (§1) Frozen stocks of the Staphylococcus sp. inocula were thawed at 37° C. for 10 minutes and vortexed before plating on blood agar and incubating at 37° C. for 18 hours. Single colonies were used to inoculate a volume of 10 mL of Mueller-Hinton Broth (MHB) and incubated at 37° C. for 18 hours in a shaking incubator (200 rpm). A volume of 100 μL of the actively growing culture was then used to inoculate a volume of 100 mL of MHB and incubated at 37° C. for 6½ hours. […] A volume of 100 μL of each dilution step was spread on plate count agar (PCA) plates and incubated at 37° C. for 18 hours to confirm viable cell numbers. The dilution to 10^−7 was used in the following steps.
(§2) The susceptibility of clinical isolates of Staphylococcus aureus, Escherichia coli and Pseudomonas aeruginosa to the constructs designated Spm-Ad-DOPE (9a) and NCSeCH2CO—CMG(2)-Ad-DOPE was determined by broth microdilution. Actively growing cultures of each clinical isolate were prepared as described above to obtain cultures with the following turbidities (OD600):
(§3) Serial dilutions of each culture to 10^−6 were prepared and used as inocula. Volumes of 50 μL of each dilution was spread on PCA plates and incubated at 37° C. for 18 hours. A two-fold dilution series for each of the two constructs, spermine (2) and selenous acid (H2SeO3) were prepared in sterile 96-well plates. Volumes of 50 μL of inocula were dispensed into a well containing a volume of 50 μL of the serially diluted construct, spermine (2) or selenous acid (H2SeO3). Following gentle mixing the plates were incubated in the dark at 37° C. for 18 hours (200 rpm). Minimum inhibitory concentrations (MIC) were thereby observed and minimum bactericidal concentrations (MBC) determined by plating aliquots from each well.

[2] = system: Staphylococcus aureus clinical isolate; assay: as above; conditions: for MBC: broth microdilution and plating, read-out: Minimum bactericidal concentration (MBC); for MIC: broth microdilution, 37° C., 18 hours, read-out: Minimum inhibitory concentration (MIC)
Description: as §1, §2, §3

[3] = system: Pseudomonas aeruginosa clinical isolate; assay: as above; conditions: for MBC: broth microdilution and plating, read-out: Minimum bactericidal concentration (MBC); for MIC: broth microdilution, 37° C., 18 hours, read-out: Minimum inhibitory concentration (MIC)
Description: as §1, §2, §3

[4] = system: Red blood cells (RBCs; group O); assay: Adherence of red blood cells to treated microplate well surfaces
Description: A stock solution of the construct designated Spm-Ad-DOPE (9a) was prepared in methanol at a concentration of 10 mg/mL. The stock solution was diluted to a concentration of 250 μg/mL in methanol and 25 μL volumes of the diluted stock solutions dispensed into each of the round bottomed wells of a multi-well microplate (Corning Inc.). The plates were allowed to dry before washing the wells 6 times with deionized water.
Red blood cells (RBCs; group O, up to 2 weeks old) were washed and re-suspended at a concentration of 1% packed cell volume (pcv) in phosphate-buffered saline (PBS). A 50 μL volume of the suspension of RBCs was dispensed into each of the wells and incubated for 1 hour at room temperature before washing 6 times with PBS. The RBCs were fixed by adding a 50 μL volume of a solution of glutaraldehyde in PBS at a concentration of 2.5% (w/v) and incubating for 10 minutes before washing each well with water and allowing to dry. The RBCs were lysed by adding a 50 μL volume of deionized water and incubating for 10 minutes before discarding the water and allowing to dry.
For scanning electron microscopy (SEM) the bottom of each well was cut from the plate and the treated surface sputter coated with platinum prior to imaging.
A two-fold serial dilution from each of the first wells was then performed. […]

| MIC ([1]; Escherichia coli) | MIC ([2]; Staphylococcus aureus) | MIC ([3]; Pseudomonas aeruginosa) | Structure (SMILES) | MBC ([1]; Escherichia coli) | MBC ([2]; Staphylococcus aureus) | MBC ([3]; Pseudomonas aeruginosa) | Attachment of RBCs to treated wells ([4]; spermine alone) | Attachment of RBCs to treated wells ([4]; spermine alone in water) | MBC [1] | MIC [1] | MBC [2] | MIC [2] | MBC [3] | MIC [3] |
| --- | --- | --- | --- | --- | --- | --- | --- | --- | --- | --- | --- | --- | --- | --- |
| 118 µM (≈ 23.9 µg/mL) | 473 µM (≈ 95.8 µg/mL) | 3790 µM (≈ 766 µg/mL) | NCCCNCCCCNCCCN [Spermine (2), spermine] | 118 µM (≈ 23.9 µg/mL) | 947 µM (≈ 192 µg/mL) | > 3790 µM | not uniform or reproducible | No cells were observed to adhere to the surface | – | – | – | – | – | – |
| – | – | – | O=[Se](O)O [H2SeO3, selenous acid] | – | – | – | – | – | >1985.01 µM | 1985.01 µM (≈ 256 µg/mL) | >1985.01 µM | 1985.01 µM (≈ 256 µg/mL) | >1985.01 µM | >1985.01 µM |
